Data from patent US10448639B2, “Fungicidal pyrazoles” (FMC CORPORATION, priority 2009, dated 2019).

Experiments:
Botrytis cinerea = test: Test B: tomato Botrytis, preventive spray on tomato seedlings, visual disease rating; conditions: for Test B rating (% disease control) / Test B disease control rating: tomato Botrytis, 100 = 100% disease control; for Test B disease control rating: 0 = no disease control relative to controls
Septoria nodorum = test: Test F: Septoria glume blotch, preventive spray on wheat seedlings, visual disease rating; conditions: for Test F rating (% disease control) / Test F disease control rating: 100 = 100% disease control; for Test F disease control rating: 0 = no disease control relative to controls
Alternaria solani = test: Test C: tomato early blight, preventive spray on tomato seedlings, visual disease rating; conditions: for Test C rating (% disease control) / Test C disease control rating: tomato early blight, 100 = 100% disease control; for Test C disease control rating: 0 = no disease control relative to controls
[1] = test system: Puccinia recondita f. sp. tritici; test: Test H: wheat leaf rust, curative spray on inoculated wheat seedlings, visual disease rating; conditions: for Test H rating (% disease control) / Test H disease control rating: wheat leaf rust, 100 = 100% disease control; for Test H disease control rating: sprayed after inoculation, 0 = no disease control relative to controls
[2] = test system: Puccinia recondita f. sp. tritici; test: Test I: wheat leaf rust, preventive spray on wheat seedlings, visual disease rating; conditions: for Test I rating (% disease control) / Test I disease control rating: wheat leaf rust, 100 = 100% disease control; for Test I disease control rating: sprayed the day before inoculation, 0 = no disease control relative to controls
[3] = test system: Erysiphe graminis f sp. tritici; test: Test J: wheat powdery mildew, preventive spray on wheat seedlings, visual disease rating; conditions: for Test J rating (% disease control) / Test J disease control rating: wheat powdery mildew, 100 = 100% disease control; for Test J disease control rating: sprayed the day before inoculation, 0 = no disease control relative to controls
Septoria tritici = test: Test G: wheat leaf blotch, preventive spray on wheat seedlings, visual disease rating; conditions: for Test G rating (% disease control) / Test G disease control rating: wheat leaf blotch, 100 = 100% disease control; for Test G disease control rating: sprayed the day before inoculation, 0 = no disease control relative to controls
[4] = 0 = no control relative to controls
[5] = Septoria glume blotch, 0 = no control relative to controls
[6] = curative, 0 = no control relative to controls
[7] = preventive, 0 = no control relative to controls
[8] = preventive spray, 0 = no control
[9] = Septoria glume blotch on wheat, preventive spray, 0 = no control

Row | SMILES | Test B rating (% disease control) (Botrytis cinerea; [4]) | Test F rating (% disease control) (Septoria nodorum; [5]) | Test C rating (% disease control) (Alternaria solani; [4]) | Test H rating (% disease control) [1, 6] | Test I rating (% disease control) [2, 7] | Test J rating (% disease control) [3, 4] | Test G rating (% disease control) (Septoria tritici; [4]) | Test B rating (% disease control) (Botrytis cinerea; [8]) | Test F rating (% disease control) (Septoria nodorum; [9]) | Test C rating (% disease control) (Alternaria solani; [8]) | Test H rating (% disease control) ([1]; curative spray, 0 = no control) | Test I rating (% disease control) [2, 8] | Test J rating (% disease control) [3, 8] | Test G rating (% disease control) (Septoria tritici; [8]) | further results
1 | COc1ccc(-c2c(C)nn(C)c2Nc2cc(F)ccc2F)c(Cl)c1 [compound 176] | 100% | 0% | 71% | 0% | 68% | 100% | 96% |  |  |  |  |  |  |  | 
2 | COc1cc(F)c(-c2c(C)nn(C)c2C(O)c2ccc(F)cc2F)c(F)c1 (centres unmarked) [compound 208] | 100% | 99% | 100% | 0% | 99% | 99% | 100% |  |  |  |  |  |  |  | 
3 | Cc1nn(C)c(Nc2c(F)cc(F)cc2F)c1-c1c(F)cccc1Cl [compound 191] | 98% | 0% | 100% | 0% | 97% | 99% | 100% |  |  |  |  |  |  |  | 
4 | COc1cc(F)c(Nc2c(-c3ccc(F)cc3Cl)c(C)nn2C)c(F)c1 [Compound 17, 4-(2-Chloro-4-fluorophenyl)-N-(2,6-difluoro-4-methoxyphenyl)-1,3-dimethyl-1H-pyrazol-5-amine] |  |  |  |  |  |  |  |  |  |  |  |  |  |  | pest or weed control at 200 µg/mL (Botrytis cinerea; Botrytis cinerea, in Solanum lycopersicum, 120 h, read-out: Test B rating (% disease control)): 100%; pest or weed control at 200 µg/mL (Septoria nodorum; Parastagonospora nodorum, in Triticum aestivum, 192 h, read-out: Test F rating (% disease control)): 93%; pest or weed control at 200 µg/mL (Alternaria solani; Alternaria solani, in Solanum lycopersicum, 168 h, read-out: Test C rating (% disease control)): 100%; pest or weed control at 200 µg/mL ([1]; 144 h, read-out: Test H rating (% disease control)): 96%; pest or weed control at 200 µg/mL ([2]; 192 h, read-out: Test I rating (% disease control)): 100%; pest or weed control at 200 µg/mL ([3]; Blumeria graminis, in Triticum aestivum, 192 h, read-out: Test J rating (% disease control)): 100%; pest or weed control at 200 µg/mL (Septoria tritici; Zymoseptoria tritici, in Triticum aestivum, 504 h, read-out: Test G rating (% disease control)): 97%
5 | Cn1nc(C2CC2)c(-c2ccc(F)cc2Cl)c1Nc1ccc(F)cc1F [compound 108] |  |  |  |  |  |  |  | 97% | 0% | 0% | 0% | 16% | 97% | 98% | 
6 | CCn1nc(C)c(-c2c(F)cccc2F)c1Nc1cc(OC)cc(OC)c1 [compound 63] |  |  |  |  |  |  |  | 0% | 0% | 0% | 0% | 0% | 0% | 0% | 
7 | Cc1nn(C)c(Nc2ccc(F)cc2)c1-c1ccccc1F [compound 184] | 97% | 0% | 0% | 0% | 82% | 98% | 99% |  |  |  |  |  |  |  | 
8 | COc1ccc(-c2c(C)nn(C)c2Nc2c(F)cccc2F)c(Cl)c1 [compound 161] | 98% | 0% | 100% | 95% | 100% | 98% | 100% |  |  |  |  |  |  |  | 
9 | COc1cc(OC)cc(-c2c(C)nn(C)c2Oc2ccc(Cl)cc2)c1 [compound 16] |  |  |  |  |  |  |  | 60% | 0% | 0% | 48% | 28% | 0% | 47% | 
10 | Cc1ccc(Oc2c(-c3c(F)cc(F)cc3F)c(C)nn2C)cc1F [compound 187] | 33% | 0% | 0% | 0% | 9% | 13% | 20% |  |  |  |  |  |  |  | 
11 | Cc1nn(C)c(Nc2ncc(Cl)cc2Cl)c1-c1ccc(F)cc1F [compound 328] |  |  |  |  |  |  |  |  |  |  |  |  |  |  | Test B disease control rating (Botrytis cinerea): 100%; Test F disease control rating (Septoria nodorum; Septoria glume blotch on wheat): 0%; Test C disease control rating (Alternaria solani): 86%; Test H disease control rating [1]: 0%; Test I disease control rating [2]: 98%; Test J disease control rating [3]: 100%; Test G disease control rating (Septoria tritici): 100%
12 | COc1cc(F)c(-c2c(C)nn(C)c2Nc2ccc(Cl)c(F)c2)c(F)c1 [compound 49] |  |  |  |  |  |  |  | 100% | 35% | 17% | 0% | 89% | 79% | 99% | 
13 | Cc1nn(C)c(Nc2cccc(F)c2)c1-c1c(F)cc(C#N)cc1F [compound 136] |  |  |  |  |  |  |  | 99% | 86% | 71% | 0% | 99% | 100% | 99% | 
14 | COc1ccc(Nc2c(-c3c(F)cc(C#N)cc3F)c(C)nn2C)cc1 [compound 126] |  |  |  |  |  |  |  | 99% | 60% | 96% | 0% | 94% | 0% | 100% | 
15 | COc1ccc(Oc2c(-c3ccc(C)cc3)c(C)nn2C)c(Cl)c1 [compound 55] |  |  |  |  |  |  |  | 6% | 0% | 0% | 0% | 41% | 73% | 98% | 
16 | Cc1nn(C)c(Nc2ccc(F)cc2F)c1-c1ccc(C#N)cc1Cl [compound 331] |  |  |  |  |  |  |  |  |  |  |  |  |  |  | Test B disease control rating (Botrytis cinerea): 100%; Test F disease control rating (Septoria nodorum; Septoria glume blotch on wheat): 73%; Test C disease control rating (Alternaria solani): 80%; Test H disease control rating [1]: 8%; Test I disease control rating [2]: 100%; Test J disease control rating [3]: 97%; Test G disease control rating (Septoria tritici): 100%
17 | Cc1nn(C)c(Nc2c(F)cc(F)cc2Cl)c1-c1c(F)cccc1Cl [compound 298] | 100% | 87% | 93% | 0% | 100% | 100% | 100% |  |  |  |  |  |  |  | 
18 | Cc1nn(C)c(Nc2ncc(Cl)cc2Cl)c1-c1c(F)cccc1Cl [compound 252] | 100% | 0% | 97% | 0% | 100% | 100% | 100% |  |  |  |  |  |  |  | 
19 | Cc1nn(C)c(Nc2ncc(F)cc2F)c1-c1c(F)cc(F)cc1F [compound 109] |  |  |  |  |  |  |  | 100% | 97% | 99% | 99% | 100% | 100% | 100% | 
20 | Cc1nn(C)c(Oc2c(F)cc(C#N)cc2F)c1-c1cccc(Cl)c1Cl [compound 273] | 0% | 0% | 0% | 0% | 27% | 43% | 72% |  |  |  |  |  |  |  | 
